Source: ChEMBL document CHEMBL5154751, “Intramolecular Interactions Enhance the Potency of Gallinamide A Analogues against Trypanosoma cruzi” (J Med Chem, 2022)

Columns and labels:
[1] = Cytotoxicity against mouse C2C12 cells assessed as lethal dose; assay type: toxicity, cell-based; conditions: read-out: LD50 (the source's name)
[2] = test system: Trypanosoma cruzi; experiment: Antitrypanosomal activity against amastigotes form of Trypanosoma cruzi CA-I/72 infected in mouse C2C12 cells assessed as parasite infection level by DAPI staining based microscopic analysis; assay type: functional, organism-based; conditions: CA-I/72, C2C12
[3] = biological target: Cruzipain (Trypanosoma cruzi, UniProt P25779); experiment: Inhibition of Trypanosoma cruzi cruzain using Z-FR-AMC as substrate preincubated for 10 mins followed by substrate addition by fluorimetric analysis
Chain of Cruzipain (P25779 whole entry): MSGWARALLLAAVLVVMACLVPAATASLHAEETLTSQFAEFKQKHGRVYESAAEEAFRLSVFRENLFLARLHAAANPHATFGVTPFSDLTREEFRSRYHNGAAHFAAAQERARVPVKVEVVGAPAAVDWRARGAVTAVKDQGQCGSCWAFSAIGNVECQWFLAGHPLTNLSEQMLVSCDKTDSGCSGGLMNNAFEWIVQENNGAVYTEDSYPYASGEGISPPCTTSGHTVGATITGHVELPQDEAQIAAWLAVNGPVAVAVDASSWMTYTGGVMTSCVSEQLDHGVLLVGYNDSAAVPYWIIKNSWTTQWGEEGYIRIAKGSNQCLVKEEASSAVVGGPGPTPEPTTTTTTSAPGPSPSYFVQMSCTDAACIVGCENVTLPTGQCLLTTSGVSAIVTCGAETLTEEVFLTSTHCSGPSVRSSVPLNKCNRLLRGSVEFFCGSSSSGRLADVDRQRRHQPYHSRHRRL

| Compound | CC50 [1] [nM] | EC50 [2] [nM] | IC50 [3] [nM] |
| --- | --- | --- | --- |
| COC1=CC(=O)N(C(=O)/C=C/[C@H](C)NC(=O)[C@H](CC(C)C)NC(=O)[C@H](CC(C)C)NC(=O)[C@H](C(C)C)N(C)C)[C@H]1Cc1c[nH]c2ccccc12 | > 600 | – | – |
| COC1=CC(=O)N(C(=O)/C=C/[C@H](C)NC(=O)[C@H](CC(C)C)NC(=O)[C@H](CC(C)C)NC(=O)C2CCN(C)CC2)[C@H]1Cc1c[nH]c2ccccc12 | > 600 | – | – |
| COC1=CC(=O)N(C(=O)/C=C/[C@H](C)NC(=O)[C@H](CC(C)C)NC(=O)[C@H](CC2CCCCC2)NC(=O)C2CCN(C)CC2)[C@H]1Cc1c[nH]c2ccccc12 | > 600 | – | – |
| COC1=CC(=O)N(C(=O)/C=C/[C@H](C)NC(=O)[C@H](CC2CCCCC2)NC(=O)[C@H](CC(C)C)NC(=O)C2CCN(C)CC2)[C@H]1Cc1c[nH]c2ccccc12 | > 600 | – | – |
| COC1=CC(=O)N(C(=O)/C=C/[C@H](C)NC(=O)[C@H](CC2CCCCC2)NC(=O)[C@H](CC2CCCCC2)NC(=O)C2CCN(C)CC2)[C@H]1Cc1c[nH]c2ccccc12 | > 600 | – | – |
| COC1=CC(=O)N(C(=O)/C=C/[C@H](C)NC(=O)[C@H](CC(C)C)NC(=O)[C@H](Cc2ccccc2)NC(=O)[C@H](C(C)C)N(C)C)[C@H]1Cc1c[nH]c2ccccc12 | > 600 | – | – |
| COC1=CC(=O)N(C(=O)/C=C/[C@H](C)NC(=O)[C@H](CCc2ccccc2)NC(=O)[C@H](CC(C)C)NC(=O)[C@H](C(C)C)N(C)C)[C@H]1Cc1c[nH]c2ccccc12 | > 600 | – | – |
| COC1=CC(=O)N(C(=O)/C=C/[C@H](C)NC(=O)[C@H](CC(C)C)NC(=O)[C@H](CC2CCCCC2)NC(=O)[C@H](C(C)C)N(C)C)[C@H]1Cc1c[nH]c2ccccc12 | > 600 | – | – |
| COC1=CC(=O)N(C(=O)/C=C/[C@H](CCc2ccccc2)NC(=O)[C@H](CC(C)C)NC(=O)[C@H](CC(C)C)NC(=O)[C@H](C(C)C)N(C)C)[C@H]1Cc1c[nH]c2ccccc12 | > 600 | – | – |
| COC1=CC(=O)N(C(=O)/C=C/[C@H](C)NC(=O)[C@H](CC2CCCCC2)NC(=O)[C@H](CC(C)C)NC(=O)[C@H](C(C)C)N(C)C)[C@H]1Cc1c[nH]c2ccccc12 | > 600 | – | – |
| COC1=CC(=O)N(C(=O)/C=C/[C@H](C)NC(=O)[C@H](CC2CCCCC2)NC(=O)[C@H](CC2CCCCC2)NC(=O)[C@H](C(C)C)N(C)C)[C@H]1Cc1c[nH]c2ccccc12 | > 600 | – | – |
| COC1=CC(=O)N(C(=O)/C=C/[C@@H](NC(=O)[C@H](CC(C)C)NC(=O)[C@H](CC2CCCCC2)NC(=O)[C@H](C(C)C)N(C)C)C2CCCCC2)[C@H]1Cc1c[nH]c2ccccc12 | > 600 | – | – |
| COC1=CC(=O)N(C(=O)/C=C/[C@H](C)NC(=O)[C@H](CCc2ccccc2)NC(=O)[C@H](CC2CCCCC2)NC(=O)[C@H](C(C)C)N(C)C)[C@H]1Cc1c[nH]c2ccccc12 | > 600 | – | – |
| COC1=CC(=O)N(C(=O)/C=C/[C@@H](CCc2ccccc2)NC(=O)[C@H](CC(C)C)NC(=O)[C@H](CC(C)C)NC(=O)[C@H](C(C)C)N(C)C)C1Cc1ccc(-c2ccccc2)cc1 (some centres undefined) | > 600 | 13 | 0.12 |
| COC1=CC(=O)N(C(=O)/C=C/[C@H](CCc2ccccc2)NC(=O)[C@H](CC(C)C)NC(=O)[C@H](CC(C)C)NC(=O)C2CCN(C)CC2)C1Cc1ccc(-c2ccc(C#N)cc2)cc1 (some centres undefined) | > 600 | 423 | 0.13 |
| COC1=CC(=O)N(C(=O)/C=C/[C@@H](CCc2ccccc2)NC(=O)[C@H](CC(C)C)NC(=O)[C@H](CC(C)C)NC(=O)[C@H](C(C)C)N(C)C)C1Cc1ccc(-c2ccc(OC)cc2)cc1 (some centres undefined) | > 600 | 19 | 0.28 |
| COC1=CC(=O)N(C(=O)/C=C/[C@H](CCc2ccccc2)NC(=O)[C@H](CC(C)C)NC(=O)[C@H](CC(C)C)NC(=O)C2CCN(C)CC2)C1Cc1ccc(-c2ccc(C(F)(F)F)cc2)cc1 (some centres undefined) | > 600 | 420 | 0.79 |
| COC1=CC(=O)N(C(=O)/C=C/[C@H](CCc2ccccc2)NC(=O)[C@H](CC(C)C)NC(=O)[C@H](CC(C)C)NC(=O)C2CCN(C)CC2)C1Cc1ccc(-c2ccccc2)cc1 (some centres undefined) | > 600 | 222 | 0.4 |
| COC1=CC(=O)N(C(=O)/C=C/[C@@H](CCc2ccccc2)NC(=O)[C@H](CC(C)C)NC(=O)[C@H](CC(C)C)NC(=O)[C@H](C(C)C)N(C)C)C1Cc1ccc(-c2ccc(C#N)cc2)cc1 (some centres undefined) | > 600 | 19 | 0.11 |
| COC1=CC(=O)N(C(=O)/C=C/[C@@H](CCc2ccccc2)NC(=O)[C@H](CC(C)C)NC(=O)[C@H](CC(C)C)NC(=O)[C@H](C(C)C)N(C)C)C1Cc1ccc(-c2ccc(C(F)(F)F)cc2)cc1 (some centres undefined) | > 600 | 78 | 0.68 |
| CCCC[C@H]1O[C@@H]1/C=C/C=O | > 600 | – | 29.7 |
| COC1=CC(=O)N(C(=O)/C=C/[C@H](CCc2ccccc2)NC(=O)[C@H](CC(C)C)NC(=O)[C@H](CC(C)C)NC(=O)C2CCN(C)CC2)C1Cc1ccc(-c2ccc(OC)cc2)cc1 (some centres undefined) | > 600 | 261 | 0.26 |
| COC1=CC(=O)N(C(=O)/C=C/[C@H](CCc2ccccc2)NC(=O)[C@H](CC(C)C)NC(=O)[C@H](CC(C)C)NC(=O)C2CCN(C)CC2)C1Cc1ccc(-c2ccc3ccccc3c2)cc1 (some centres undefined) | > 600 | 521 | 1.56 |
| COC1=CC(=O)N(C(=O)/C=C/[C@@H](CCc2ccccc2)NC(=O)[C@H](CC(C)C)NC(=O)[C@H](CC(C)C)NC(=O)[C@H](C(C)C)N(C)C)C1Cc1ccc(-c2ccc3ccccc3c2)cc1 (some centres undefined) | > 600 | 59 | 0.69 |
| O=C(Cn1ccnc1[N+](=O)[O-])NCc1ccccc1 [BENZNIDAZOLE] | > 600 | 1910 | – |
| CC[C@H](C)[C@@H](C(=O)O[C@@H](CC(C)C)C(=O)N[C@@H](CC(C)C)C(=O)N[C@@H](C)/C=C/C(=O)N1C(=O)C=C(OC)[C@@H]1C)N(C)C [GALLINAMIDE A] | > 600 | – | 1.3 |
